Data: US5358936A, “Anionic furanose derivatives, methods of making and using the same” (Gordon; Paul, priority 1991, dated 1994)
Several values for one entry are separate records, joined by “and”; a condition that tells them apart may be missing. Equal values may be shown once. Entries after “also recorded” stand apart in the source; their conditions may differ. Where a name gives a salt, the structure may show the parent alone.

What was measured:
platelet aggregation = test: Mouse tail bleeding time (Example 31 B); type: in vivo
Description: A study of mouse tail bleeding time, which is an in vivo model of platelet aggregation and thrombosis was also conducted. In this widely employed model, bleeding was induced by a standardized transection of the tail tip and subsequent bleeding time was determined after vertical immersion of the tails in isotonic saline at 37° C. for thirty seconds.
Two compounds of the invention, Compound III and Compound VIII, were assessed as compared with aspirin, in another study of mouse tail bleeding time. In this study, the mice were housed in a standard animal room rather than in a noisy small animal isolator. Also, all three drugs were administered by an intraperitoneal route, rather than a subcutaneous route for Compound III and an intraperitoneal route for aspirin.

rat stomachs [1] = test: Gastric pathology following inflammatory stress and indomethacin, food-deprived rats (Example 21); type: in vivo
Description: (§1) Stress was induced by the following procedure. On day one, under ether anesthesia, 18 male Sprague Dawley rats were injected with a suspension of Zymosan A (1 mg/ml in normal saline; Sigma Chemical Co.) in each hind paw. Swelling developed and persisted. This treatment generated activated blood complement locally (including the C5a moiety), which then spread by the bloodstream throughout the animal.
(§2) Twenty-four hours later all rat paws were reinjected, this time with 0.1 ml of proinflammatory zymosan-activated rat serum containing additional amounts of inflammatory complement fragment C5a (as in Example 23, hereinafter). Five hours later 30 mg/kg indomethacin in an aqueous suspension was given to nine such rats by oral garage. These rats also received a subcutaneous injection of 0.1 ml normal saline. Nine other such rats were given indomethacin as above, and Compound III (50 mg/kg in normal saline subcutaneously). Four additional rats, not stressed (normal) were given water by garage as a placebo and saline subcutaneously. All rats were fed ad libitum on standard diet.
In contrast to the study of Example 20, above, in this study animals were food deprived for 24 hours before and also during the 24 hours following drug treatments. All animals were subjected to the inflammatory stress as described in Example 20. Eight such rats received 30 mg/kg indomethacin, and eight rats received indomethacin and Compound III (subcut., 50 mg/kg). Four rats, not stressed, were given placebo by garage.
All animals were sacrificed by ether euthanasia 24 hours later, and their stomachs evaluated for ulcer-related pathology.
In the stressed animals given indomethacin alone, pathology was much more severe than in Example 20. For scoring, therefore, the frequency of ulcers per rat stomach was quantified, and whether they were or were not bleeding.

[2] = tested on: bacterial lipopolysaccharide toxicity; test: Early shock symptoms (diarrhea, malaise) after bacterial endotoxin in older rabbits (Example 28 B); type: in vivo, rabbit; conditions: 10 mg/kg IV; by 48 hours; all eight controls affected; P<0.01
Description: B. Employing the same batch of endotoxin, the same induction methodology was applied to an older, seven month old group of rabbits. […] In this study the treatment group received 10 mg/kg of Compound III, given IV, as above.

mouse paw = test: Mouse paw edema provoked by clostridial collagenase (Example 32); type: in vivo; conditions: for maximal drug inhibition of edema: lower enzyme level (0.05 μg/ml), 100 mg/kg divided IV and IP
Description: Further, mouse paw edema was provoked by two levels of clostridial collagenase enzyme, in the supramaximal range (0.05 μg/ml and 0.15 μg/ml), and treated with one level of drug (Compound III; 100 mg/kg divided equally and administered IV and IP at zero time). The maximal drug inhibition observed was 81 percent at one hour and 87 percent at two hours, for the lower level of enzyme.

mouse blood coagulation = test: Blood coagulation, in vitro clotting time (Example 31 A); conditions: 10 μg/ml in normal saline
Description: To assess the effect on coagulation, if any, of a compound of the invention, a comparative evaluation was made using mouse blood.
One ml of freshly drawn mouse blood was added to each tube, and the tube contents were mixed. The clotting time was then noted for each tube, and the results are as shown below:

rat stomachs [3] = test: Gastric pathology following inflammatory stress and indomethacin, fed rats (Example 20); type: in vivo, male Sprague Dawley rats; set-up: scale not given here; conditions: stress + indomethacin 30 mg/kg oral; Compound III 50 mg/kg subcutaneously where given; 24 hours
Description: as §1, §2
Twenty-four hours later all animals were sacrificed by ether euthanasia. Their stomachs were washed with saline and evaluated for ulcer-related pathology using an illuminated magnifying glass. This assay is similar to that reported by Kinney et al., J. Med. Chem., 33:327 (1990).

foot pad = test: Inflammation provoked by carrageenan injection (Example 25); type: in vivo, mice
peritoneal neutrophils = test: In vitro neutrophil chemotaxis toward zymosan-activated rat serum (Example 24); type: cell-based, mouse; conditions: for Percent Inhibition of chemotaxis: tripotassium salt
Description: In vitro neutrophil chemotaxis studies were carried out by standard methods, as follows:
Mice were injected with complete Freund's adjuvant (CFA) and peritoneal cells, principally neutrophjls (>90 percent), were reproved from the mice 24 hours thereafter. Blind-well chemotactic chambers (Nucleopore Corp., Pleasanton, Calif.) were utilized.
Medium (RPMI 1640 plus 10 percent fetal calf serum) or medium plus 20 percent zymosan-activated rat serum (ZAS) was added to the lower compartment of each chamber. A nucleopore filter (8 μm pore size) was placed between compartments and 1×10^5 peritoneal neutrophils (above) suspended in medium were placed in the upper compartment. Chambers were incubated for six hours, after which time the filters were removed and stained with Giemsa stain. The number of cells on the lower surface of the filter was counted under a microscope. Treatment groups were assayed in duplicate.
The studies were carried out more specifically as follows:
Zymosan (Sigma Chemical Co., St. Louis, Mo.) was mixed with rat serum for one hour at 37° C. at 1 milligram (mg)/ml. The resulting chemoattractant composition was filtered, aliquotted and stored frozen at -70° C. prior to use.
The above chemoattractant composition was used as a 20 percent v/v solution in medium.
The chemotaxis chambers were arranged as follows:
The chambers were incubated at 37° C. for six hours, after which the chambers were dismantled, and the filters removed and treated as follows:
a) The filters were immersed in Giemsa stain diluted 1:50 for 30-45 minutes.
b) The stained filters were rinsed gently in distilled water for 3-5 minutes.
c) The stained, rinsed filters were air dried without blotting.
Several compounds described herein and control compounds ("drug", above) were examined at various concentrations, in duplicate. The molar concentration of a drug that inhibited the observed chemotaxis by 50 percent, defined as the ID50 value, was determined as shown below.

[4] = Chronic toxicity in C57 Black mice by drinking water (Example 29 B); type: in vivo; conditions: 28 days, average daily dose 175 mg/kg
Description: However, eight mice were treated with Compound III by drinking water, for a period of 28 days. During this time, the average daily dose consumed was 175 mg/kg.

Description for physchem: Note that the term "apparent pK" in this context is meant to encompass the maximization of buffering that come both from solid-state dissolution and its titration as solute.

CC1(C)O[C@H]2O[C@H]([C@@H](COS(=O)(=O)O)OS(=O)(=O)O)[C@H](OS(=O)(=O)O)[C@H]2O1 [Compound III, 1,2-O-(2-Propylidene)-3,5,6-tri-O-sulfo-α-D-glucofuranose, tripotassium salt]
effect on mouse tail bleeding time, in words (platelet aggregation; 50 mg/kg and 150 mg/kg subcutaneously, P<0.05): more than doubled bleeding time | % Increase in bleeding time (platelet aggregation; 100 mg/kg intraperitoneal): 276% | Mouse Tail Bleeding Time (platelet aggregation; 100 mg/kg intraperitoneal, control 37.0 ± 5.25): 139.0 ± 22.51 s | potency relative to aspirin in prolonging mouse tail bleeding time / suppressing platelet aggregation (platelet aggregation; first study: aspirin 75 mg/kg IP, Compound III s.c. or oral, second study: all IP 100 mg/kg, tripotassium salt): equipotent with aspirin (75 mg/kg IP); also recorded: about equipotent with aspirin; also recorded: more effective than aspirin; also recorded: more potent than aspirin in the suppression of platelet aggregation | bleeding ulcers in group (rat stomachs [1]; eight rats): None were bleeding | Bleeding Ulcer Frequency, Mn ± SE (rat stomachs [1]; indomethacin 30 mg/kg, Compound III 50 mg/kg subcut. where given, 24 hours, P<0.001 vs indomethacin alone): 0.00 Per Rat | Total Ulcer Frequency, n ± SE (rat stomachs [1]; indomethacin 30 mg/kg, Compound III 50 mg/kg subcut. where given, 24 hours, P<0.01 vs indomethacin alone): 0.63 ± 0.42 Per Rat | ulcers per affected rat (rat stomachs [1]; indomethacin: all eight rats, indomethacin + Compound III: only two rats): two and three | rabbits exhibiting symptoms of early shock (diarrhea, malaise) [2]: only one of eight | maximal drug inhibition of edema (mouse paw; one hour): 81% | drug inhibition at higher enzyme level, in words (mouse paw; two hours, 0.15 μg/ml enzyme, 100 mg/kg): not significant | maximal drug inhibition of edema (mouse paw; two hours): 87% | Clotting time, individual mouse (mouse blood coagulation; control 2.0-6.0, tripotassium salt): 2.0 min and 1.0 min and 4.0 min | Average clotting time (mouse blood coagulation; control 4.33 ± 1.20, P<0.001): 2.0 ± 0.71 min | pKa (physchem): < 0.5 | Mean Pathology score (rat stomachs [3]): 0.00 | Pathology score, individual rat (rat stomachs [3]): 0.0 | reduction in swelling (foot pad; subcutaneous, ibuprofen 50 mg/kg, Compound III 30 mg/kg, not significant): 26% | Swelling Change (foot pad; two hours, SOD 100 units IV, Compound III 50 mg/kg IV + 50 mg/kg IP): -74% | Foot-Pad Swelling (foot pad; two hours, SOD 100 units IV, Compound III 50 mg/kg IV + 50 mg/kg IP, control 3.8 ± 0.67): 0.82 ± 0.46 0.1 mm | times as potent as ibuprofen and prednisone in chemotaxis inhibition (peritoneal neutrophils): 100-1000 times | IC50 (peritoneal neutrophils; Mus musculus, Neutrophil, 6 h, 20 percent zymosan-activated rat serum, six hours, 37° C., read-out: ID50 (molar concentration that inhibited chemotaxis by 50 percent)): 0.2 µM | inhibition at 0.01 µg/mL (peritoneal neutrophils; Mus musculus, Neutrophil, dose 0.01 μg/ml, read-out: Percent Inhibition of chemotaxis): 1.5% | inhibition at 100 µg/mL (peritoneal neutrophils; Mus musculus, Neutrophil, dose 100.0 μg/ml, read-out: Percent Inhibition of chemotaxis): 68% | inhibition at 200 µg/mL (peritoneal neutrophils; Mus musculus, Neutrophil, dose 200.0 μg/ml, read-out: Percent Inhibition of chemotaxis): 60% | Percent Inhibition of chemotaxis (peritoneal neutrophils; dose 1.0 μg/ml): 69.0% and 65.0% and 90.0% and 88.5% and 77.0% and 63.5% and 70.0% | Percent Inhibition of chemotaxis (peritoneal neutrophils; dose 10.0 μg/ml): 87.0% and 76.0% and 92.5% and 97.5% and 74.5% | Percent Inhibition of chemotaxis (peritoneal neutrophils; dose 100.0 μg/ml): 80.5% | relative activity in inhibiting neutrophil chemotaxis, in words (peritoneal neutrophils; in vitro): more active than any of the other assayed compounds | body weight and appearance at termination versus controls [4]: weighed as much as the controls, and looked sleeker
